Results reported in US8153385B2, “Target protein and target gene in drug designing and screening method” (Reverse Proteomics Research Institute Co., Ltd., priority 2004, dated 2012).

Target: T1, FLJ13397 clone-derived protein (CARP) (Homo sapiens, UniProt Q9H8M7)
T1 construct: A human full-length cDNA clone was expressed as a protein with an N-terminal His tag; His tag (pDEST17 Gateway vector) (N); made in house; host or cells: Escherichia coli BL21star(DE3)pLysS
T1 sequence (Q9H8M7 1-445): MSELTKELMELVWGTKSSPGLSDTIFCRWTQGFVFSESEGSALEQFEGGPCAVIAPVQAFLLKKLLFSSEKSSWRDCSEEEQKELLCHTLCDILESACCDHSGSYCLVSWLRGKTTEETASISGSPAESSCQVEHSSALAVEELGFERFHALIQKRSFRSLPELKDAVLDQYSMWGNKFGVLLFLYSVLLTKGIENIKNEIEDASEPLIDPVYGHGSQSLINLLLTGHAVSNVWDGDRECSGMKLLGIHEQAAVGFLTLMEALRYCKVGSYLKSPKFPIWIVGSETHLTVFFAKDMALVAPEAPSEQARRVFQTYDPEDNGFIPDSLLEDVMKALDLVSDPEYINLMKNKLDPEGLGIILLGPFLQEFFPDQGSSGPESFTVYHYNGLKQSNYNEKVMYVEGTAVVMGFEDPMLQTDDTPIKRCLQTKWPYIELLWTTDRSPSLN
Assay: SEC/MS (size exclusion chromatography / mass analysis) interaction analysis between FLJ13397 clone-derived protein and compounds
Type: binding
Procedure: BP-reaction was performed on human full-length cDNA clone and the cloning vector Gateway pDONR201 by the PCR cloning method using the Invitrogen Gateway system to yield an entry clone. LR-reaction was performed on this entry clone with the destination vector pDEST17 (Gateway System) and LR Clonase at 25° C. for 60 minutes to yield an expression plasmid. Escherichia coli competent cell BL21star(DE3)pLysS were transformed with this expression plasmid, a clone incorporating the expression vector was selected, and a frozen stock was prepared. The transformant was inoculated into LB medium and precultured, after which it was transferred into SB medium and cultured to induce the expression by IPTG, and the cells were stored frozen.
A human full-length cDNA clone was expressed as a protein with an N-terminal His tag. This clone was purified using BioRobot 8000 (Qiagen) or ACTA Crystal (Amersham). […] In the purification with ACTA Crystal, affinity purification using a HisTrap HP column was followed by gel filtration purification using the Gel Filtration Column HiLoad 16/60 or a 10/30 Superdex 75 prep grade column. The purified fraction was used for interaction analysis after being subjected to SDS-PAGE to verify the estimated molecular weight and purity.
To analyze the interactions between commonly used drugs and proteins expressed from human full-length cDNA clones while keeping both the proteins and the compounds in non-modified, non-immobilized state, size exclusion chromatography (SEC) and mass analysis were used in combination (FIGS. 1 and 2). The specific procedures are shown below.
The compound-protein mixture prepared in step 1 was subjected to chromatography using an SEC column, the compound and the protein were separated by SEC, and the bound compound or compound that interacted with the protein in the protein fraction was analyzed using a mass analyzer.
Protein concentrations were measured using BCA Protein Assay (PIERCE), in consideration of the purity calculated by SDS-PAGE.
Mass analysis was performed using LCQ DECA XP (Thermoelectron) or Q-TOFmicro (Micromass), equipped with an ESI probe. The LC pump used was Agilent 1100 (Yokogawa Analytical Systems), and the autosampler used was HTC-PAL (CTC Analytics) equipped with a cooling stacker.
In the SEC method using a 384-well spin column, Unifilter 100 (Whatman), packed with 10 μL (dry volume) of Bio-Gel P6 (BIO-RAD) and swollen with milliQ water, was used as the SEC column. […] The SEC spin column was mounted on an acetonitrile-aliquoted 384-well U-bottom plate and centrifuged; the SEC spin column filtrate, which is a protein fraction, was retrieved in 50% acetonitrile. The protein precipitate produced by the acetonitrile was removed via centrifugation and filtration for protein removal; the resulting filtrate was concentrated by centrifugation and re-dissolved in 10 μL of 50% methanol to obtain a mass analysis sample. The mobile phase supplied to the mass analyzer was 0.1% formic acid/50% methanol solution in the positive ion mode, and 0.1% ammonia/50% methanol solution in the negative ion mode; these mobile phases were used at a flow rate of 40 μL/min. 2-μL of mass analysis samples were injected using an autosampler at 2-Minute intervals; the mass spectral intensity of the compound was measured to obtain the spectral intensity of the pharmaceutical compound contained in the SEC spin column filtrate (protein fraction eluted from SEC).

[1] = compound 1 μM, protein 0 μM (protein-free reference)
[2] = compound 1 μM, protein 23.75 μM
[3] = compound 10 μM, protein 0 μM (protein-free reference)
[4] = compound 10 μM, protein 23.75 μM
[5] = compound 10 μM, protein 47.5 μM
[6] = compound 100 μM, protein 0 μM (protein-free reference)
[7] = compound 100 μM, protein 23.75 μM
[8] = compound 100 μM, protein 47.5 μM
[9] = compound 250 μM, protein 0 μM (protein-free reference)
[10] = compound 250 μM, protein 23.75 μM
[11] = compound 250 μM, protein 47.5 μM

SMILES	spectrum intensity of the extracted mass range (compound in SEC spin column filtrate) [1]	spectrum intensity of the extracted mass range (compound in SEC spin column filtrate) [2]	spectrum intensity of the extracted mass range (compound in SEC spin column filtrate) (compound 1 μM, protein 47.5 μM)	spectrum intensity of the extracted mass range (compound in SEC spin column filtrate) [3]	spectrum intensity of the extracted mass range (compound in SEC spin column filtrate) [4]	spectrum intensity of the extracted mass range (compound in SEC spin column filtrate) [5]	spectrum intensity of the extracted mass range (compound in SEC spin column filtrate) [6]	spectrum intensity of the extracted mass range (compound in SEC spin column filtrate) [7]	spectrum intensity of the extracted mass range (compound in SEC spin column filtrate) [8]	spectrum intensity of the extracted mass range (compound in SEC spin column filtrate) [9]	spectrum intensity of the extracted mass range (compound in SEC spin column filtrate) [10]	spectrum intensity of the extracted mass range (compound in SEC spin column filtrate) [11]	interaction with the FLJ13397-expressed protein (judgement) (judged from increase of spectrum intensity with doses of compound and protein)
Nc1nc2ccccc2n1Cc1ccccc1 [2-Amino-1-Benzylbenzimidazole, 2-Amino-1-benzylbenzimidazole]	5598524	1659600	2958392	4341825	4509110	7550402	12703620	32945929	42993061	39100216	125775631	559844	
CCCS(=O)(=O)c1ccc2[nH]c(N)nc2c1 [2-Amino-5-N-Propylsulphonylbenzimidazole, 2-Amino-5-N-propylsulphonylbenzimidazole]	825049	360734	484482	1750199	1437041	1664928	36160236	53411123	52719227	91113992	98334673	159174682	
Nc1nc2ccccc2[nH]1 [2-Aminobenzimidazole]	276565	42562	152781	153479	69826	71963	437739	1819414	2080493	2837732	7370524	8155388	
CCCS(=O)(=O)c1ccc2nc(NC(=O)OC)[nH]c2c1 [Albendazole Sulfone]	1342766	1155288	761260	5960539	5481616	5089101	94575228	149841728	131428354	66281031	280956724	328407687	
CCC[S+]([O-])c1ccc2[nH]c(NC(=O)OC)nc2c1 (stereo not shown) [Albendazole Sulfoxide]	1514429	1280086	1361540	11869270	13449119	14241157	125971079	208777846	241218904	460535649	532900104	372564422	
CCCSc1ccc2nc(NC(=O)OC)[nH]c2c1 [Albendazole]	99130	290428	247973	25263	1117765	603904	221630	6713076	3946588	151791	18185332	55508710	
COc1ccc(CCN2CCC(Nc3nc4ccccc4n3Cc3ccc(F)cc3)CC2)cc1 [Astemizole]	12239048	16006165	18099237	13557249	118520633	36678174	210085727	1213216132	2237504347	710392964	1027353172	2019252410	concentration-dependent interaction
c1ccc2[nH]cnc2c1 [Benzimidazole]	2459590	1627696	1328076	2937731	1321952	2620286	3881633	4636579	4337586	9545633	10439034	13446649	
